Numbers after ± are expanded uncertainties.
Legend:
[1] = relative permittivity at zero frequency (dimensionless); xn = mol fraction of the nth substance listed; conditions: 100 kPa, Liquid, Dielectrometer
[2] = relative permittivity at zero frequency (dimensionless); conditions: 100 kPa, Liquid, Dielectrometer

SMILES	relative permittivity at zero frequency ([1]; 288.15 K, x2 = 0)	relative permittivity at zero frequency ([1]; 293.15 K, x2 = 0)	relative permittivity at zero frequency ([1]; 298.15 K, x2 = 0)	relative permittivity at zero frequency ([1]; 303.15 K, x2 = 0)	relative permittivity at zero frequency ([1]; 308.15 K, x2 = 0)	relative permittivity at zero frequency ([2]; 288.15 K)	relative permittivity at zero frequency ([2]; 293.15 K)	relative permittivity at zero frequency ([2]; 298.15 K)	relative permittivity at zero frequency ([2]; 303.15 K)	relative permittivity at zero frequency ([2]; 308.15 K)	other results
CCCCO [butan-1-ol] + CCC(C)O	19.01 ± 0.06	18.28 ± 0.06	17.58 ± 0.06	16.91 ± 0.06	16.26 ± 0.06	–	–	–	–	–	–
CC(C)CO [2-methyl-1-propanol]	–	–	–	–	–	19.51 ± 0.06	18.71 ± 0.06	17.96 ± 0.06	17.23 ± 0.06	16.53 ± 0.06	–
CCCCO [butan-1-ol] + CC(C)(C)O	19.01 ± 0.06	18.28 ± 0.06	17.58 ± 0.06	16.91 ± 0.06	16.26 ± 0.06	–	–	–	–	–	–
CC(C)(C)O [2-methylpropan-2-ol] + CC(C)CO	–	–	–	–	–	–	–	–	–	–	relative permittivity at zero frequency ([1]; 288.15 K, x1 = 1): 14.49 ± 0.06; relative permittivity at zero frequency ([1]; 293.15 K, x1 = 1): 13.38 ± 0.06; relative permittivity at zero frequency ([1]; 298.15 K, x1 = 1): 12.49 ± 0.06; relative permittivity at zero frequency ([1]; 303.15 K, x1 = 1): 11.34 ± 0.06; relative permittivity at zero frequency ([1]; 308.15 K, x1 = 1): 10.4 ± 0.06
CCC(C)O (stereo not given) [butan-2-ol] + CC(C)CO	–	–	–	–	–	–	–	–	–	–	relative permittivity at zero frequency ([1]; 288.15 K, x1 = 1): 18.47 ± 0.06; relative permittivity at zero frequency ([1]; 293.15 K, x1 = 1): 17.51 ± 0.06; relative permittivity at zero frequency ([1]; 298.15 K, x1 = 1): 16.6 ± 0.06; relative permittivity at zero frequency ([1]; 303.15 K, x1 = 1): 15.75 ± 0.06; relative permittivity at zero frequency ([1]; 308.15 K, x1 = 1): 14.94 ± 0.06
CC(C)(C)O [2-methylpropan-2-ol]	–	–	–	–	–	14.49 ± 0.06	13.38 ± 0.06	12.49 ± 0.06	11.34 ± 0.06	10.4 ± 0.06	–
CCCCO [butan-1-ol] + CC(C)CO	19.01 ± 0.06	18.28 ± 0.06	17.58 ± 0.06	16.91 ± 0.06	16.26 ± 0.06	–	–	–	–	–	–
CCC(C)O (stereo not given) [butan-2-ol] + CC(C)(C)O	18.47 ± 0.06	17.51 ± 0.06	16.6 ± 0.06	15.75 ± 0.06	14.94 ± 0.06	–	–	–	–	–	–
CCC(C)O (stereo not given) [butan-2-ol]	–	–	–	–	–	18.47 ± 0.06	17.51 ± 0.06	16.6 ± 0.06	15.75 ± 0.06	14.94 ± 0.06	–
CCCCO [butan-1-ol]	–	–	–	–	–	19.01 ± 0.06	18.28 ± 0.06	17.58 ± 0.06	16.91 ± 0.06	16.26 ± 0.06	–
